Patent US8178548B2, “Anti-infective agents and uses thereof” (priority 2007, dated 2012)
Like-named read-outs stand apart in the source and are kept apart here.

Experiments:
[1] = test system: genotype 1a-H77 subgenomic replicon cell line; assay: HCV Polymerase Replicon Assay, genotype 1a-H77 (luciferase reporter); format: cell-based; conditions: Hepatitis C virus, 72 h, read-out: EC50 1a
[2] = target: T1, HCV polymerase 1B (Δ21 NS5B, HCV Strain 1B BK) (Hepatitis C virus genotype 1b, UniProt P26663); assay: biochemical
T1 construct: 20 to 50 nM Δ21 NS5B
Procedure: (§1) Either two-fold serial dilutions (fractional inhibition assay) or a narrower range of dilutions spanning the IC50 of the inhibitor (tight binding assay) of the inhibitors were incubated with 20 mM Tris-Cl pH 7.4, 2 mM MnCl2, 1 mM dithiothreitol, 1 mM ethylene diamine tetraacetic acid (EDTA), 60 to 125 μM GTP and 20 to 50 nM Δ21 NS5B (HCV Strain 1B (BK, Genbank accession number M58335, or H77, Genbank accession number AF011751)) for 15 min at room temperature. The reaction was initiated by the addition of 20 μM CTP, 20 μM ATP, 1 μM ^3H-UTP (10 mCi/umol), 5 nM template RNA and 0.1 U/μl RNase inhibitor (RNasin, Promega), and allowed to proceed for 2 to 4 h at room temperature. Reaction volume was 50 μl. The reaction was terminated by the addition of 1 volume of 4 mM spermine in 10 mM Tris-Cl pH 8.0, 1 mM EDTA. After incubation for at least 15 min at room temperature, the precipitated RNA was captured by filtering through a GF/B filter (Millipore) in a 96 well format. The filter plate was washed three times with 200 μl each of 2 mM spermine, 10 mM Tris-Cl pH 8.0, 1 mM EDTA, and 2 times with ethanol. After air-drying, 30 μl of Microscint 20 scintillation cocktail (Packard) was added to each well, and the retained cpm were determined by scintillation counting. […] Retained cpm were plotted vs. inhibitor concentration and fit to equation 1 using non-linear regression (ref. 1) to obtain the IC50 values: Retained cpm=A[sqrt{(IC50+It−Et)^2+4*IC50*Et}−(IC50+It−Et)]
(§2) Ref. Morrison, J. F. and S. R. Stone. 1985. Approaches to the study and analysis of the inhibition of enzymes by slow- and tight-binding inhibitors. Comments Mol. Cell. Biophys. 2: 347-368.
(§3) The sequence of the template RNA used was: 5′-[…] […] […] […] […] […] […] […] […] […] […] […] […] […] […] […] […]-3′ (SEQ ID NO:1).

[3] = target: T2, HCV polymerase 1A (Δ21 NS5B, H77) (Hepatitis C virus genotype 1a, UniProt P27958); assay: biochemical
T2 construct: 20 to 50 nM Δ21 NS5B
Procedure: as §1, §2, §3

[4] = test system: genotype 1b-Con1 subgenomic replicon cell line; assay: HCV Polymerase Replicon Assay, genotype 1b-Con1 (luciferase reporter); format: cell-based; conditions: Hepatitis C virus, 72 h, read-out: EC50 1b

T1 sequence (P26663 2420-2989, stated change not applied): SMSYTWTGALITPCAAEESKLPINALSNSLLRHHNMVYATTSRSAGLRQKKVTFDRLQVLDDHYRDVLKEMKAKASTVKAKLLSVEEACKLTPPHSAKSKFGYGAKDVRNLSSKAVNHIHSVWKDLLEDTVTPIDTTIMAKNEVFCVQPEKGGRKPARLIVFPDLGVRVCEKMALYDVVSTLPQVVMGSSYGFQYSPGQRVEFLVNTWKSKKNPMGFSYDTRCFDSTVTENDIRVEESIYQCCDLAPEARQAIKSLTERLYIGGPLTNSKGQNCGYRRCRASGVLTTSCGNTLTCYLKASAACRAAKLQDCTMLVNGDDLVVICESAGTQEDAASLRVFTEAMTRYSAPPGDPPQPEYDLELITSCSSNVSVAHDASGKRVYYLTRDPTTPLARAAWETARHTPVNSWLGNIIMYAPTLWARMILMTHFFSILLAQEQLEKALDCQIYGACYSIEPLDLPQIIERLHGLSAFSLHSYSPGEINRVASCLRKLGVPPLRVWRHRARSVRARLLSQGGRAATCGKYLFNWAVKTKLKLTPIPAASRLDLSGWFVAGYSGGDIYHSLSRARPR
T2 sequence (P27958 2421-2990, stated change not applied): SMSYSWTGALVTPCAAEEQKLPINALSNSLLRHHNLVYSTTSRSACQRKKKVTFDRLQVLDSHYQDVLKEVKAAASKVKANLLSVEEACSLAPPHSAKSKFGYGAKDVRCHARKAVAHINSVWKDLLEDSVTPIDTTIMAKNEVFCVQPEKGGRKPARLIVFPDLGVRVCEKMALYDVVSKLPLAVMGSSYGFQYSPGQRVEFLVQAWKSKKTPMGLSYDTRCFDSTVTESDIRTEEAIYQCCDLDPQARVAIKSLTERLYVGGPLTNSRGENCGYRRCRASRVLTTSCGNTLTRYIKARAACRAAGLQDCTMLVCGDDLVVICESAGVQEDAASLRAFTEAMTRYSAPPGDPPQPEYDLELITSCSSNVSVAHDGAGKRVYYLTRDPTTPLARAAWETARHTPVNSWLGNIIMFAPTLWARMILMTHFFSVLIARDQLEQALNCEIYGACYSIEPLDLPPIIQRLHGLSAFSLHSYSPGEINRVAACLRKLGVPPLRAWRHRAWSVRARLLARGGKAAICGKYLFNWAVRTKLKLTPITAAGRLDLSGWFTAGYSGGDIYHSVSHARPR

| Compound | EC50 [1] | IC50 [2] | IC50 [3] | EC50 [4] | EC50 ([4]; replicon 1b-Con1, luciferase, three days) |
| --- | --- | --- | --- | --- | --- |
| COc1c(C=C(F)c2ccc(NS(C)(=O)=O)cc2)cc(N2CCC(=O)NC2=O)cc1C(C)(C)C (racemic) [IA-L1-1.21, N-(4-(2-(3-tert-butyl-5-(2,4-dioxotetrahydropyrimidin-1(2H)-yl)-2-methoxyphenyl) 1-fluorovinyl)phenyl)methanesulfonamide] | < 10 nM | 10 to 100 nM | 10 to 100 nM | < 10 nM | – |
| COc1c(/C=C(\Cl)c2ccc(NS(C)(=O)=O)cc2)cc(N2CCC(=O)NC2=O)cc1C(C)(C)C [IA-L1-1.3, (Z)-N-(4-(2-(3-tert-butyl-5-(2,4-dioxotetrahydropyrimidin-1(2H)-yl)-2-methoxyphenyl)-1-chlorovinyl)phenyl)methanesulfonamide] | 10 to 100 nM | < 10 nM | < 10 nM | < 10 nM | – |
| COc1c(/C=C(\F)c2ccc(NS(C)(=O)=O)cc2)cc(N2CCC(=O)NC2=O)cc1C(C)(C)C [IA-L1-1.4, (Z)-N-(4-(2-(3-tert-butyl-5-(2,4-dioxotetrahydropyrimidin-1(2H)-yl)-2-methoxyphenyl)-1-fluorovinyl)phenyl)methanesulfonamide] | < 10 nM | < 10 nM | < 10 nM | < 10 nM | – |
| COc1c(/C=C(/F)c2ccc(NS(C)(=O)=O)cc2)cc(N2CCC(=O)NC2=O)cc1C(C)(C)C [IA-L1-1.5, (E)-N-(4-(2-(3-tert-butyl-5-(2,4-dioxotetrahydropyrimidin-1(2H)-yl)-2-methoxyphenyl)-1-fluorovinyl)phenyl)methanesulfonamide] | 10 to 100 nM | 10 to 100 nM | < 10 nM | < 10 nM | – |
| COc1c(/C=C(\C)c2ccc(NS(C)(=O)=O)cc2)cc(N2CCC(=O)NC2=O)cc1C(C)(C)C [IA-L1-1.6, (E)-N-(4-(1-(3-tert-butyl-5-(2,4-dioxotetrahydropyrimidin-1(2H)-yl)-2-methoxyphenyl)prop-1-en-2-yl)phenyl)methanesulfonamide] | 10 to 100 nM | 10 to 100 nM | < 10 nM | 10 to 100 nM | – |
| COc1c(/C=C/c2ccc(NS(C)(=O)=O)cc2)cc(N2CCC(=O)NC2=O)cc1C(C)(C)C [IA-L1-1.9, (E)-N-(4-(3-tert-butyl-5-(2,4-dioxotetrahydropyrimidin-1(2H)-yl)-2-methoxystyryl)phenyl)methanesulfonamide] | 10 to 100 nM | 10 to 100 nM | < 10 nM | < 10 nM | – |
| COc1c(/C=C/c2ccc(N(C(C)=O)S(C)(=O)=O)cc2)cc(N2CCC(=O)NC2=O)cc1C(C)(C)C [IA-L1-1.11, (E)-N-(4-(3-tert-butyl-5-(2,4-dioxotetrahydropyrimidin-1(2H)-yl)-2-methoxystyryl)phenyl)-N-(methylsulfonyl)acetamide] | < 10 nM | 10 to 100 nM | 10 to 100 nM | < 10 nM | – |
| COc1c(/C=C/c2ccc(F)cc2)cc(N2CCC(=O)NC2=O)cc1C(C)(C)C [IA-L1-1.12, (E)-1-(3-tert-butyl-5-(4-fluorostyryl)-4-methoxyphenyl) dihydropyrimidine-2,4(1H,3H)-dione] | 100 to 1000 nM | 100 to 1000 nM | 100 to 1000 nM | 100 to 1000 nM | – |
| COc1c(/C=C/c2ccc(N)cc2)cc(N2CCC(=O)NC2=O)cc1C(C)(C)C [IA-L1-1.13, (E)-1-(3-(4-aminostyryl)-5-tert-butyl-4-methoxyphenyl)dihydropyrimidine-2,4(1H,3H)-dione] | > 1000 nM | 100 to 1000 nM | 100 to 1000 nM | 100 to 1000 nM | – |
| COc1ccc(/C=C/c2cc(N3CCC(=O)NC3=O)cc(C(C)(C)C)c2OC)cc1 [IA-L1-1.14, (E)-1-(3-tert-butyl-4-methoxy-5-(4-methoxystyryl)phenyl)dihydropyrimidine-2,4(1H,3H)-dione] | > 1000 nM | > 1000 nM | > 1000 nM | > 1000 nM | – |
| CC(C)(C)c1cc(/C=C/c2ccc(NS(C)(=O)=O)cc2)cc(N2CCC(=O)NC2=O)c1 [IA-L1-1.16, (E)-N-(4-(3-tert-butyl-5-(2,4-dioxotetrahydropyrimidin-1(2H)-yl)styryl)phenyl)methanesulfonamide] | 10 to 100 nM | < 10 nM | < 10 nM | 10 to 100 nM | – |
| CO/C(=C\c1cc(N2CCC(=O)NC2=O)cc(C(C)(C)C)c1OC)c1ccc(NS(C)(=O)=O)cc1 [IA-L1-1.17, (Z)-N-(4-(2-(3-tert-butyl-5-(2,4-dioxotetrahydropyrimidin-1(2H)-yl)-2-methoxyphenyl)-1-methoxyvinyl)phenyl)methanesulfonamide] | 10 to 100 nM | 10 to 100 nM | 10 to 100 nM | 10 to 100 nM | – |
| COc1c(/C=C/c2ccccc2)cc(N2CCC(=O)NC2=O)cc1C(C)(C)C [IA-L1-1.18, (E)-1-(3-tert-butyl-4-methoxy-5-styrylphenyl)dihydro-pyrimidine-2,4(1H,3H)-dione] | 100 to 1000 nM | 100 to 1000 nM | 100 to 1000 nM | 100 to 1000 nM | – |
| COc1c(/C=C\c2ccc(NS(C)(=O)=O)cc2)cc(N2CCC(=O)NC2=O)cc1C(C)(C)C [IA-L1-1.20, (Z)-N-(4-(3-tert-butyl-5-(2,4-dioxotetrahydropyrimidin-1(2H)-yl)-2-methoxystyryl)phenyl)methanesulfonamide] | 10 to 100 nM | – | – | 10 to 100 nM | – |
| COc1c(/C=C/c2ccc([N+](=O)[O-])cc2)cc(N2CCC(=O)NC2=O)cc1C(C)(C)C [IA-L1-1.22, (E)-1-(3-tert-butyl-4-methoxy-5-(4-nitrostyryl)phenyl)dihydropyrimidine-2,4(1H,3H)-dione] | > 1000 nM | 100 to 1000 nM | 100 to 1000 nM | 100 to 1000 nM | – |
| COc1c(/C=C(\Cl)c2ccc([N+](=O)[O-])cc2)cc(N2CCC(=O)NC2=O)cc1C(C)(C)C [IA-L1-1.23, 1-{3-tert-butyl-5-[(Z)-2-chloro-2-(4-nitro-phenyl)-vinyl]-4-methoxy-phenyl}-dihydropyrimidine-2,4-dione] | > 1000 nM | 100 to 1000 nM | 100 to 1000 nM | > 1000 nM | – |
| CC(C)(C)c1cc(/C=C/c2ccc([N+](=O)[O-])cc2)cc(N2CCC(=O)NC2=O)c1 [IA-L1-1.25, 1-{3-tert-Butyl-5-[(E)-2-(4-nitro-phenyl)-vinyl]-phenyl}-dihydro-pyrimidine-2,4-dione] | – | > 1000 nM | > 1000 nM | – | – |
| COc1c(/C=C/c2ccc(NS(C)(=O)=O)cc2)cc(-n2cc(F)c(=O)[nH]c2=O)cc1C(C)(C)C [IB-L1-1.2, (E)-N-(4-(3-tert-butyl-5-(5-fluoro-2,4-dioxo-3,4-dihydropyrimidin-1(2H)-yl)-2-methoxystyryl)phenyl)methanesulfonamide] | – | 10 to 100 nM | 10 to 100 nM | – | 10 to 100 nM |
| COc1c(/C=C/c2ccc(NS(C)(=O)=O)cc2)cc(-n2ccc(=O)[nH]c2=O)cc1-c1cccnc1 [IB-L1-1.53, (E)-N-(4-(5-(2,4-dioxo-3,4-dihydropyrimidin-1(2H)-yl)-2-methoxy-3-(pyridin-3-yl)styryl)phenyl)methanesulfonamide] | – | > 1000 nM | > 1000 nM | – | – |
| COc1c(/C=C/c2ccc(NS(C)(=O)=O)cc2)cc(-n2ccc(=O)[nH]c2=O)cc1-c1ccncc1 [IB-L1-1.55, (E)-N-(4-(5-(2,4-dioxo-3,4-dihydropyrimidin-1(2H)-yl)-2-methoxy-3-(pyridin-4-yl)styryl)phenyl)methanesulfonamide] | – | > 1000 nM | > 1000 nM | – | – |
